# Results as given in article PMC5218480 (PLoS ONE, 2017).
# Test system: MV-4-11 cells
# Test: Gene expression microarray analysis (Affymetrix PrimeView) and GSEA
# Type: cell-based, human
# Set-up: RFU PODN (11730768_x_at) / Fold change /veh PODN (11730768_x_at) / RFU LINC00158 (11744669_a_at) / Fold change /veh LINC00158 (11744669_a_at) / RFU DUSP10 (11751237_a_at) / Fold change /veh DUSP10 (11751237_a_at) / RFU ID3 (11757404_x_at) / Fold change /veh ID3 (11757404_x_at) / RFU PLEKHG5 (11737974_s_at) / Fold change /veh PLEKHG5 (11737974_s_at) / RFU LRRC4B (11730491_at) / Fold change /veh LRRC4B (11730491_at) / RFU GIMAP4 (11747438_a_at) / Fold change /veh GIMAP4 (11747438_a_at) / RFU KRT8 (11758183_x_at) / Fold change /veh KRT8 (11758183_x_at) / RFU CNN1 (11734310_a_at) / Fold change /veh CNN1 (11734310_a_at) / RFU VPS37D (11726825_at) / Fold change /veh VPS37D (11726825_at) / RFU C10orf10 (11716522_x_at) / Fold change /veh C10orf10 (11716522_x_at) / RFU KIR2DL2 /// KIR2DL4 /// KIR2DL5A /// KIR2DL5B /// KIR2DS1 /// KIR2DS2 /// KIR2DS3 /// KIR2DS4 /// KIR3DL3 /// KIR3DL3 /// KIR3DS1 (11738374_at) / Fold change /veh KIR2DL2 /// KIR2DL4 /// KIR2DL5A /// KIR2DL5B /// KIR2DS1 /// KIR2DS2 /// KIR2DS3 /// KIR2DS4 /// KIR3DL3 /// KIR3DL3 /// KIR3DS1 (11738374_at) / RFU C1QL1 (11718748_at) / Fold change /veh C1QL1 (11718748_at) / RFU TMPRSS4 (11747572_a_at) / Fold change /veh TMPRSS4 (11747572_a_at) / RFU HAMP (11756126_x_at) / Fold change /veh HAMP (11756126_x_at) / RFU RNFT2 (11725882_a_at) / Fold change /veh RNFT2 (11725882_a_at) / RFU NR4A2 (11747474_a_at) / Fold change /veh NR4A2 (11747474_a_at) / RFU ABCC12 (11746883_a_at) / Fold change /veh ABCC12 (11746883_a_at) / RFU TMEM136 (11760407_x_at) / Fold change /veh TMEM136 (11760407_x_at) / RFU CLDN22 /// WWC2 (11732394_at) / Fold change /veh CLDN22 /// WWC2 (11732394_at) / RFU HLA-DPB1 (11760878_x_at) / Fold change /veh HLA-DPB1 (11760878_x_at) / RFU SPINT1 (11716480_a_at) / Fold change /veh SPINT1 (11716480_a_at) / RFU GAP43 (11754022_s_at) / Fold change /veh GAP43 (11754022_s_at) / RFU A4GNT (11735810_at) / Fold change /veh A4GNT (11735810_at) / RFU PRB3 (11715151_x_at) / Fold change /veh PRB3 (11715151_x_at) / RFU TUBB4B (11761932_at) / Fold change /veh TUBB4B (11761932_at) / RFU CAPN14 (11732068_a_at) / Fold change /veh CAPN14 (11732068_a_at) / RFU TMCC2 (11721928_a_at) / Fold change /veh TMCC2 (11721928_a_at) / RFU IRGQ (11745062_a_at) / Fold change /veh IRGQ (11745062_a_at) / RFU FAM174B (11720279_a_at) / Fold change /veh FAM174B (11720279_a_at) / RFU TMPRSS4 (11748680_a_at) / Fold change /veh TMPRSS4 (11748680_a_at) / RFU FAM212B (11763350_a_at) / Fold change /veh FAM212B (11763350_a_at) / RFU PLEKHG5 (11743358_a_at) / Fold change /veh PLEKHG5 (11743358_a_at) / RFU ZSCAN30 (11745921_a_at) / Fold change /veh ZSCAN30 (11745921_a_at) / RFU CMKLR1 (11741424_a_at) / Fold change /veh CMKLR1 (11741424_a_at) / RFU LOC101060620 /// MAPK8IP1 (11723275_at) / Fold change /veh LOC101060620 /// MAPK8IP1 (11723275_at) / RFU SPTSSB (11747773_x_at) / Fold change /veh SPTSSB (11747773_x_at) / RFU PRSS12 (11739890_at) / Fold change /veh PRSS12 (11739890_at) / RFU BIN1 (11741810_x_at) / Fold change /veh BIN1 (11741810_x_at) / RFU WNT11 (11732464_a_at) / Fold change /veh WNT11 (11732464_a_at) / RFU C10orf10 (11716521_a_at) / Fold change /veh C10orf10 (11716521_a_at) / RFU C5orf56 (11738089_at) / Fold change /veh C5orf56 (11738089_at) / RFU CYB561 (11721691_x_at) / Fold change /veh CYB561 (11721691_x_at) / RFU ANKRD19P (11752326_a_at) / Fold change /veh ANKRD19P (11752326_a_at) / RFU OR2T12 /// OR2T33 /// OR2T8 (11738714_s_at) / Fold change /veh OR2T12 /// OR2T33 /// OR2T8 (11738714_s_at) / RFU VCAN (11748164_a_at) / Fold change /veh VCAN (11748164_a_at) / RFU JSRP1 (11732532_at) / Fold change /veh JSRP1 (11732532_at) / RFU KRTAP10-11 (11738290_x_at) / Fold change /veh KRTAP10-11 (11738290_x_at) / RFU MYO3A (11730013_a_at) / Fold change /veh MYO3A (11730013_a_at) / RFU EBF3 (11725865_a_at) / Fold change /veh EBF3 (11725865_a_at) / RFU CAMK2N1 (11719241_x_at) / Fold change /veh CAMK2N1 (11719241_x_at) / RFU C5orf56 (11738088_a_at) / Fold change /veh C5orf56 (11738088_a_at) / RFU OLFML3 (11715873_a_at) / Fold change /veh OLFML3 (11715873_a_at) / RFU LOC100653217 /// NTM (11731650_a_at) / Fold change /veh LOC100653217 /// NTM (11731650_a_at) / RFU MAPK11 (11762145_a_at) / Fold change /veh MAPK11 (11762145_a_at) / RFU FIZ1 (11724087_x_at) / Fold change /veh FIZ1 (11724087_x_at) / RFU OASL (11726364_x_at) / Fold change /veh OASL (11726364_x_at) / RFU SOX15 (11748057_x_at) / Fold change /veh SOX15 (11748057_x_at) / RFU CD79A (11719716_a_at) / Fold change /veh CD79A (11719716_a_at) / RFU HIST1H1D (11736915_at) / Fold change /veh HIST1H1D (11736915_at) / RFU CASKIN2 (11723855_a_at) / Fold change /veh CASKIN2 (11723855_a_at) / RFU LOC730098 (11760151_x_at) / Fold change /veh LOC730098 (11760151_x_at) / RFU OR4N2 (11742367_at) / Fold change /veh OR4N2 (11742367_at) / RFU PRRT2 (11749266_a_at) / Fold change /veh PRRT2 (11749266_a_at) / RFU SNX32 (11753110_a_at) / Fold change /veh SNX32 (11753110_a_at) / RFU CDHR5 (11726645_a_at) / Fold change /veh CDHR5 (11726645_a_at) / RFU RCAN1 (11760418_a_at) / Fold change /veh RCAN1 (11760418_a_at) / RFU FAM167A (11723789_a_at) / Fold change /veh FAM167A (11723789_a_at) / RFU FAM26E (11764081_at) / Fold change /veh FAM26E (11764081_at) / RFU ISYNA1 (11749810_s_at) / Fold change /veh ISYNA1 (11749810_s_at) / RFU ACY1 (11761880_at) / Fold change /veh ACY1 (11761880_at) / RFU 11764098_at / Fold change /veh 11764098_at / RFU SAMD14 (11745864_x_at) / Fold change /veh SAMD14 (11745864_x_at) / RFU NPB (11741838_a_at) / Fold change /veh NPB (11741838_a_at) / RFU TMPRSS6 (11731388_a_at) / Fold change /veh TMPRSS6 (11731388_a_at) / RFU KRTAP10-2 (11738614_at) / Fold change /veh KRTAP10-2 (11738614_at) / RFU ARHGAP8 /// PRR5-ARHGAP8 (11727945_x_at) / Fold change /veh ARHGAP8 /// PRR5-ARHGAP8 (11727945_x_at) / RFU KRTAP5-7 /// NADSYN1 (11734609_at) / Fold change /veh KRTAP5-7 /// NADSYN1 (11734609_at) / RFU RASL12 (11751679_a_at) / Fold change /veh RASL12 (11751679_a_at) / RFU CDKN2B (11736163_a_at) / Fold change /veh CDKN2B (11736163_a_at) / RFU PRF1 (11729649_at) / Fold change /veh PRF1 (11729649_at) / RFU, ZNF638 /// ZNF638-IT1 / Fold change vs veh, ZNF638 /// ZNF638-IT1 / RFU, PANK3 / Fold change vs veh, PANK3 / RFU, SH3YL1 / Fold change vs veh, SH3YL1 / RFU, ZEB2 / Fold change vs veh, ZEB2 / RFU, NRIP1 / Fold change vs veh, NRIP1 / RFU, PTTG1IP / Fold change vs veh, PTTG1IP / RFU, CAPN2 / Fold change vs veh, CAPN2 / RFU, MED14 / Fold change vs veh, MED14 / RFU, SNORA58 / Fold change vs veh, SNORA58 / RFU, C1orf63 / Fold change vs veh, C1orf63 / RFU, LRRFIP1 / Fold change vs veh, LRRFIP1 / RFU, NDUFAF7 / Fold change vs veh, NDUFAF7 / RFU, SLC12A2 / Fold change vs veh, SLC12A2 / RFU, IBTK / Fold change vs veh, IBTK / RFU, ESF1 / Fold change vs veh, ESF1 / Fold change vs veh, TMEM50B / RFU, TAOK1 / Fold change vs veh, TAOK1 / RFU, ACBD3 / Fold change vs veh, ACBD3 / RFU, TMA16 / Fold change vs veh, TMA16 / RFU, RWDD3 / Fold change vs veh, RWDD3 / RFU, BCAT1 / Fold change vs veh, BCAT1 / RFU, EDEM3 / Fold change vs veh, EDEM3 / RFU, TMEM33 / Fold change vs veh, TMEM33 / RFU, WDR75 / Fold change vs veh, WDR75 / RFU, AHCTF1 / Fold change vs veh, AHCTF1 / RFU, TFRC / Fold change vs veh, TFRC / RFU, ZDHHC17 / Fold change vs veh, ZDHHC17 / RFU, NOM1 / Fold change vs veh, NOM1 / RFU, ARL8B / Fold change vs veh, ARL8B / RFU, ZBTB11 / Fold change vs veh, ZBTB11 / RFU, TAMM41 / Fold change vs veh, TAMM41 / RFU, KIAA1704 /// LOC100996395 / Fold change vs veh, KIAA1704 /// LOC100996395 / RFU, ING1 / Fold change vs veh, ING1 / RFU, TRMT61B / Fold change vs veh, TRMT61B / RFU, FUBP3 / Fold change vs veh, FUBP3 / RFU, TP53 / Fold change vs veh, TP53 / RFU, TNKS2 / Fold change vs veh, TNKS2 / RFU, ZFP14 / Fold change vs veh, ZFP14 / RFU, ACTR2 / Fold change vs veh, ACTR2 / RFU, PPP3R1 / Fold change vs veh, PPP3R1 / RFU, PIK3R1 / Fold change vs veh, PIK3R1 / RFU, HNRNPA1 / Fold change vs veh, HNRNPA1 / RFU, RNF170 / Fold change vs veh, RNF170 / RFU, ZNF28 / Fold change vs veh, ZNF28 / RFU, RNGTT / Fold change vs veh, RNGTT / RFU, OGT / Fold change vs veh, OGT / RFU, BRD1 / Fold change vs veh, BRD1 / RFU, MARS / Fold change vs veh, MARS / RFU, ZNF655 / Fold change vs veh, ZNF655 / RFU, FAHD1 / Fold change vs veh, FAHD1 / RFU, BDP1 / Fold change vs veh, BDP1 / RFU, LRRCC1 / Fold change vs veh, LRRCC1 / RFU, ARID1A / Fold change vs veh, ARID1A / RFU, ZNF146 / Fold change vs veh, ZNF146 / RFU, ZNF330 / Fold change vs veh, ZNF330 / RFU, GPN3 / Fold change vs veh, GPN3 / RFU, C9orf123 / Fold change vs veh, C9orf123 / RFU, N4BP2L2 / Fold change vs veh, N4BP2L2 / RFU, ARFIP1 / Fold change vs veh, ARFIP1 / RFU, FAM179B / Fold change vs veh, FAM179B / RFU, BCL10 / Fold change vs veh, BCL10 / RFU, UHRF1BP1L / Fold change vs veh, UHRF1BP1L / RFU, BET1 / Fold change vs veh, BET1 / RFU, CNOT2 / Fold change vs veh, CNOT2 / RFU, ZNF268 / Fold change vs veh, ZNF268 / Fold change vs veh, ZNF507 / RFU, DGCR2 / Fold change vs veh, DGCR2 / RFU, WDSUB1 / Fold change vs veh, WDSUB1 / Fold change vs veh, HSP90B1 /// MIR3652 / RFU, ADSS / Fold change vs veh, ADSS / RFU, GK / Fold change vs veh, GK / RFU, ZNF148 / Fold change vs veh, ZNF148 / RFU, TAF9 / Fold change vs veh, TAF9 / RFU, SLC1A5 / Fold change vs veh, SLC1A5 / RFU, SLMO2 / Fold change vs veh, SLMO2 / RFU, ABCC4 / Fold change vs veh, ABCC4 / RFU, LOC101060439 /// RAP1B / Fold change vs veh, LOC101060439 /// RAP1B / RFU, RFX7 / Fold change vs veh, RFX7 / RFU, GTPBP10 / Fold change vs veh, GTPBP10 / RFU, CNEP1R1 / Fold change vs veh, CNEP1R1 / RFU, BIVM-ERCC5 /// ERCC5 / Fold change vs veh, BIVM-ERCC5 /// ERCC5 / RFU, ILF3 / Fold change vs veh, ILF3 / RFU 11762660_at / Fold change /veh 11762660_at / RFU VCAN (11757783_s_at) / Fold change /veh VCAN (11757783_s_at) / RFU DDX43 (11728927_at) / Fold change /veh DDX43 (11728927_at) / RFU KRT8 (11758188_x_at) / Fold change /veh KRT8 (11758188_x_at) / RFU NKD1 (11759106_at) / Fold change /veh NKD1 (11759106_at) / RFU SRD5A1 (11742802_a_at) / Fold change /veh SRD5A1 (11742802_a_at) / RFU TPSAB1 /// TPSB2 (11721975_s_at) / Fold change /veh TPSAB1 /// TPSB2 (11721975_s_at) / RFU GSTM3 (11746129_a_at) / Fold change /veh GSTM3 (11746129_a_at) / RFU IL23R (11737362_x_at) / Fold change /veh IL23R (11737362_x_at) / RFU TMEM51 (11727254_a_at) / Fold change /veh TMEM51 (11727254_a_at) / RFU PIWIL2 (11732686_x_at) / Fold change /veh PIWIL2 (11732686_x_at) / RFU ORM1 (11744905_x_at) / Fold change /veh ORM1 (11744905_x_at) / RFU CCDC152 (11743942_at) / Fold change /veh CCDC152 (11743942_at) / RFU ECM1 (11717891_a_at) / Fold change /veh ECM1 (11717891_a_at) / RFU IL23R (11748794_a_at) / Fold change /veh IL23R (11748794_a_at) / RFU TNFAIP8L3 (11732012_x_at) / Fold change /veh TNFAIP8L3 (11732012_x_at) / RFU MBOAT4 (11741988_at) / Fold change /veh MBOAT4 (11741988_at) / RFU 11764193_at / Fold change /veh 11764193_at / RFU TMEM53 (11763286_at) / Fold change /veh TMEM53 (11763286_at) / RFU MAGEB2 (11727129_at) / Fold change /veh MAGEB2 (11727129_at) / RFU TMEM200A (11744735_a_at) / Fold change /veh TMEM200A (11744735_a_at) / RFU CCDC152 (11751479_a_at) / Fold change /veh CCDC152 (11751479_a_at) / RFU FAM211A (11726209_a_at) / Fold change /veh FAM211A (11726209_a_at) / RFU RGS16 (11746705_a_at) / Fold change /veh RGS16 (11746705_a_at) / RFU VCAN (11755009_s_at) / Fold change /veh VCAN (11755009_s_at) / RFU RHOB (11743442_s_at) / Fold change /veh RHOB (11743442_s_at) / RFU RGS16 (11720943_a_at) / Fold change /veh RGS16 (11720943_a_at) / RFU RGS16 (11720944_at) / Fold change /veh RGS16 (11720944_at) / RFU, VPS4B / Fold change vs veh, VPS4B / RFU, CREB1 / Fold change vs veh, CREB1 / RFU, DNAJC13 / Fold change vs veh, DNAJC13 / RFU, GNAQ / Fold change vs veh, GNAQ / RFU, CDK5R1 / Fold change vs veh, CDK5R1 / RFU, ZRANB3 / Fold change vs veh, ZRANB3 / RFU, CUL4A / Fold change vs veh, CUL4A / RFU, CCNY / Fold change vs veh, CCNY / RFU, UFL1 / Fold change vs veh, UFL1 / RFU, COG3 / Fold change vs veh, COG3 / RFU, DIAPH2 / Fold change vs veh, DIAPH2 / RFU, SKA2 / Fold change vs veh, SKA2 / RFU, AFF3 / Fold change vs veh, AFF3 / RFU, LMF1 / Fold change vs veh, LMF1 / RFU, IPO11 / Fold change vs veh, IPO11 / RFU, DFFB / Fold change vs veh, DFFB / RFU, FOXP1 / Fold change vs veh, FOXP1 / RFU, CARD8 / Fold change vs veh, CARD8 / RFU, STRN3 / Fold change vs veh, STRN3 / RFU, ADK / Fold change vs veh, ADK / RFU, RASSF2 / Fold change vs veh, RASSF2 / RFU, WIPF1 / Fold change vs veh, WIPF1 / RFU, LARP1B / Fold change vs veh, LARP1B / RFU, RASA1 / Fold change vs veh, RASA1 / RFU, RB1 / Fold change vs veh, RB1 / RFU, PPFIA1 / Fold change vs veh, PPFIA1 / RFU, MAT2A / Fold change vs veh, MAT2A / RFU, CCT5 / Fold change vs veh, CCT5 / RFU, WDR92 / Fold change vs veh, WDR92 / RFU, CUX1 / Fold change vs veh, CUX1 / RFU, TTC7A / Fold change vs veh, TTC7A / RFU, TMEM135 / Fold change vs veh, TMEM135 / RFU, DEPTOR / Fold change vs veh, DEPTOR / RFU, CPM / Fold change vs veh, CPM / RFU, DNAJB6 / Fold change vs veh, DNAJB6 / RFU, CACNA2D3 / Fold change vs veh, CACNA2D3 / RFU, DTX4 / Fold change vs veh, DTX4 / RFU, TFCP2 / Fold change vs veh, TFCP2 / RFU, GMCL1 /// GMCL1P1 / Fold change vs veh, GMCL1 /// GMCL1P1 / RFU, AEBP2 / Fold change vs veh, AEBP2 / RFU, SNHG1 /// SNORD22 /// SNORD25 /// SNORD26 /// SNORD27 /// SNORD28 /// SNORD29 /// SNORD31 / Fold change vs veh, SNHG1 /// SNORD22 /// SNORD25 /// SNORD26 /// SNORD27 /// SNORD28 /// SNORD29 /// SNORD31 / Fold change (Aza/veh), C12orf56 (ProbeSet 11735607_a_at) / Fold change (ACY-1035/veh), C12orf56 (ProbeSet 11735607_a_at) / Fold change (Aza/veh), FGFR1OP (ProbeSet 11751329_s_at) / Fold change (ACY-1035/veh), FGFR1OP (ProbeSet 11751329_s_at) / Fold change (Aza/veh), VPS36 (ProbeSet 11739960_a_at) / Fold change (ACY-1035/veh), VPS36 (ProbeSet 11739960_a_at) / RFU SYPL1 (11715823_x_at) / Fold change /veh SYPL1 (11715823_x_at) / RFU IGFBP7 (11715501_s_at) / Fold change /veh IGFBP7 (11715501_s_at) / RFU REEP3 (11722064_at) / Fold change /veh REEP3 (11722064_at) / RFU IGLL1 (11728026_x_at) / Fold change /veh IGLL1 (11728026_x_at): dose or concentration left out as unconfirmed
# Details: MV-4-11 cells, 48 hours
smiles,measurement,value
Nc1ncn([C@@H]2O[C@H](CO)[C@@H](O)[C@H]2O)c(=O)n1 [azacitidine],RFU LOC101060620 /// MAPK8IP1 (11723275_at),10.14 RFU
